From patent US6855346B2, “Pharmaceutical composition having prophylactic effects on lamivudine-related disease relapse and drug resistance and methods of using the same” (priority 2001, dated 2005)
Marks after values point to notes of the source that are not given here.

Legend:
Format in all cases: in vivo, human
[1] = tested on: Chronic Hepatitis B (HBV); experiment: Clinical study of YGK and lamivudine in chronic hepatitis B patients: serum biological markers (Example 6)
Protocol: Patients were randomized and divided into group A, B and C. Group A was the treatment group with 48 patients while group B with 42 patients and group C with 45 patients were positive control groups.
(§1) (2) Treatment Method • Each treatment period lasted for 4 weeks.
(§2) (1) Observe Items • (a) Hepatitis B biological markers: Serum HBV-DNA, HBeAg, Anti-Hbe, HbsAg, Anti-HBs were analyzed before treatment, at week 4, 8, 16 and 32 during treatment and at week 24 and 48 after treatment termination. • Serum HBV-DNA was measured by polymerase chain reaction (PCR) using 9600 DNA Amplification Machine (PE corp., USA) and reagents from E-li-kang Biotech. Corp., Zhejiang, Wenzhou, China. Serum HBeAg, anti-HBe, HBsAg, and Anti-HBs were determined by the Imx method using Automatic Quick Micro Immune Analytic Instrument and reagents from Abbott Laboratories, USA. • (b) Hepatic functions: ALT was monitored at week 4, 8, 16 and 32 during treatment and at week 24 and 48 after treatment termination. • (c) Adverse effects: Patients were constantly monitored by the medical staff for adverse effect throughout the treatment periods.
Data obtained at weeks 4, 8, 16, and 32 during treatment and at weeks 24 and 48 after treatment termination were analyzed by Chi-square (X^2) and t-test. The statistical results obtained were used to evaluate the therapeutic effects.

[2] = Clinical study of YGK and lamivudine in chronic hepatitis B patients: adverse effects; settings: after 16 weeks of treatment, of 42 patients; disappeared after 2 more weeks
Protocol: (§3) A total of 135 patients who met the criteria were included in this study. Patients were randomized and divided into group A, B and C. Group A was the treatment group with 48 patients while group B with 42 patients and group C with 45 patients were positive control groups.
as §1, §2

ALT = experiment: Clinical study of YGK and lamivudine in chronic hepatitis B patients: hepatic function (ALT)
Protocol: as §3, §1, §2
Data obtained at weeks 4, 8, 16, and 32 during treatment and at weeks 24 and 48 after treatment termination were analyzed by Chi-square (X^2) and t-test. […]

[3] = number of patients after 4 weeks of treatment
[4] = number of patients after 8 weeks of treatment
[5] = number of patients after 16 weeks of treatment
[6] = number of patients after 32 weeks of treatment
[7] = number of patients at week 24 after treatment termination
[8] = number of patients at week 48 after treatment termination

Nc1ccn([C@@H]2CS[C@H](CO)O2)c(=O)n1 [lamivudine, (2R, cis)-4-amino-1-(2-hydroxmethyl-1,3-oxathiolan-5-yl)-(1H)-pyrimidin-2-one]
HBeAg seroconversion ([1]; after 16 weeks of treatment): 4.8%
patients with negative HBV DNA ([1]; after 16 weeks of treatment): 61.9%
HBV DNA negative conversion ([1]; after 32 weeks of treatment): 90.5%
HBeAg seroconversion ([1]; after 32 weeks of treatment): 9.5%
rate for patients turning negative in HBeAg ([1]; after lamivudine treatment): 9.5%
Seroconversion of HBeAg [1, 3]: 0**
Seroconversion of HBsAg [1, 3]: 0
Seroconversion of anti-Hbe [1, 3]: 0**
Seroconversion of Anti-HBs [1, 4]: 0
Seroconversion of HBeAg [1, 4]: 0**
Seroconversion of HBsAg [1, 4]: 0**
Seroconversion of anti-HBe [1, 4]: 0**
Seroconversion of Anti-HBs [1, 5]: 0
Seroconversion of HBeAg [1, 5]: 2**
Seroconversion of HBsAg [1, 5]: 0**
Seroconversion of anti-HBe [1, 5]: 0**
Seroconversion of Anti-HBs [1, 6]: 1
Seroconversion of HBeAg [1, 6]: 4**
Seroconversion of HBsAg [1, 6]: 1**
Seroconversion of anti-HBe [1, 6]: 4**
Seroconversion of Anti-HBs 24W [1, 7]: 1**
Seroconversion of HBeAg 24W [1, 7]: 4**
Seroconversion of HBsAg 24W [1, 7]: 1**
Seroconversion of anti-HBe 24W [1, 7]: 4**
Seroconversion of Anti-HBs 48W [1, 8]: 0**
Seroconversion of HBeAg 48W [1, 8]: 0**
Seroconversion of HBsAg 48W [1, 8]: 0**
Seroconversion of anti-HBe 48W [1, 8]: 0**
patients relapsed to positive for HBV DNA ([1]; of the 38 patients HBV DNA negative during treatment, week 48 after treatment termination): 12
overall HBV DNA seroconversion rate ([1]; week 48 after treatment termination): 61.9%
patients showing adverse effects (anorexia, abdominal discomfort, fluctuating ALT levels) [2]: 8
patients with normal ALT (ALT; after 4 weeks of treatment): 66.6%
patients with normal ALT (ALT; [3]): 28**
